Results as given in ChEMBL document CHEMBL1201862, “PubChem BioAssay data set” (2004).
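The compound was tested at five concentrations on cells cultured in 96-well plates, with a 48-hour exposure period. At the GI50, growth is halved.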 The source made the active and inactive calls. No stated cut-off is given here; in the data, active = GI50 up to about 1.1 µM and inactive = higher.

Tests used:
Assay in all cases: NCI-60 cell line screen, 48 h
[1] = system: NCI-H460
[2] = system: OVCAR-3
[3] = system: RXF 393
[4] = system: HCC 2998
[5] = system: SK-MEL-2
[6] = system: KM12
[7] = system: CAKI-1
[8] = system: MCF7
[9] = system: SK-OV-3
[10] = system: NCI/ADR-RES
[11] = system: NCI-H23
[12] = system: DU-145
[13] = system: OVCAR-8
[14] = system: A498
[15] = system: HCT-116
[16] = system: Hs-578T
[17] = system: OVCAR-4
[18] = system: MDA-MB-231
[19] = system: U-251
[20] = system: HL-60
[21] = system: PC-3
[22] = system: SK-MEL-5
[23] = system: EKVX
[24] = system: SK-MEL-28
[25] = system: TK-10
[26] = system: IGROV-1
[27] = system: SNB-19
[28] = system: OVCAR-5
[29] = system: BT-549
[30] = system: UACC-257
[31] = system: NCI-H522
[32] = system: MDA-MB-435
[33] = system: Malme-3M
[34] = system: SF-295
[35] = system: UACC-62
[36] = system: LOX IMVI
[37] = system: SN12C
[38] = system: HOP-62
[39] = system: SF-268
[40] = system: RPMI-8226
[41] = system: COLO 205
[42] = system: M14
[43] = system: MOLT-4
[44] = system: 786-0
[45] = system: SF-539
[46] = system: HT-29
[47] = system: SW-620
[48] = system: MDA-N
[49] = system: CCRF-CEM
[50] = system: ACHN
[51] = system: HCT-15
[52] = system: A549
[53] = system: T47D
[54] = system: HOP-92
[55] = system: NCI-H226
[56] = system: K562
[57] = system: SNB-75
[58] = system: UO-31
[59] = system: SR

C[C@H]1[C@H]2[C@H]3CC[C@@H]4[C@@]5(C)CC[C@H](O)C(C)(C)[C@@H]5CC[C@@]4(C)[C@]3(C)C[C@H](O)[C@@]2(C)C[C@H]2O[C@]21C
GI50 [1]: 18.9 µM (inactive) | GI50 [2]: 16.4 µM (inactive) | GI50 [3]: 16.7 µM (inactive) | GI50 [4]: 17.5 µM (inactive) | GI50 [5]: 19 µM (inactive) | GI50 [6]: 19.8 µM (inactive) | GI50 [7]: 25.1 µM (inactive) | GI50 [8]: 16.5 µM (inactive) | GI50 [9]: 14.7 µM (inactive) | GI50 [10]: 18.5 µM (inactive) | GI50 [11]: 18.2 µM (inactive) | GI50 [12]: 15.5 µM (inactive) | GI50 [13]: 19.6 µM (inactive) | GI50 [14]: 21.4 µM (inactive) | GI50 [15]: 16.1 µM (inactive) | GI50 [16]: 25.2 µM (inactive) | GI50 [17]: 25.1 µM (inactive) | GI50 [18]: 18 µM (inactive) | GI50 [19]: 17.2 µM (inactive) | GI50 [20]: 44 µM (inactive) | GI50 [21]: 13.7 µM (inactive) | GI50 [22]: 16.6 µM (inactive) | GI50 [23]: 24.2 µM (inactive) | GI50 [24]: 15.5 µM (inactive) | GI50 [25]: 22.3 µM (inactive) | GI50 [26]: 27.4 µM (inactive) | GI50 [27]: 20.6 µM (inactive) | GI50 [28]: 24.6 µM (inactive) | GI50 [29]: 20.4 µM (inactive) | GI50 [30]: 16.8 µM (inactive) | GI50 [31]: 22.3 µM (inactive) | GI50 [32]: 18.9 µM (inactive) | GI50 [33]: 20 µM (inactive) | GI50 [34]: 15.6 µM (inactive) | GI50 [35]: 23.2 µM (inactive) | GI50 [36]: 16.4 µM (inactive) | GI50 [37]: 16.9 µM (inactive) | GI50 [38]: 20.7 µM (inactive) | GI50 [39]: 18 µM (inactive) | GI50 [40]: 19.4 µM (inactive) | GI50 [41]: 24 µM (inactive) | GI50 [42]: 25.5 µM (inactive) | GI50 [43]: 27.5 µM (inactive) | GI50 [44]: 19.5 µM (inactive) | GI50 [45]: 18.8 µM (inactive) | GI50 [46]: 14.3 µM (inactive) | GI50 [47]: 24 µM (inactive) | GI50 [48]: 18.9 µM (inactive) | GI50 [49]: 32.4 µM (inactive) | GI50 [50]: 15.2 µM (inactive) | GI50 [51]: 20.1 µM | GI50 [52]: 16.7 µM (inactive) | GI50 [53]: 16 µM (inactive) | GI50 [54]: 17.7 µM (inactive)

CC(C(=O)O)c1ccc(-c2ccccc2)c(F)c1 (stereo not drawn) [FLURBIPROFEN]
GI50 [1]: > 100 µM (inactive) | GI50 [3]: > 100 µM (inactive) | GI50 [4]: > 100 µM (inactive) | GI50 [5]: > 100 µM (inactive) | GI50 [6]: > 100 µM (inactive) | GI50 [7]: > 100 µM (inactive) | GI50 [8]: > 100 µM (inactive) | GI50 [55]: > 100 µM (inactive) | GI50 [9]: > 100 µM (inactive) | GI50 [10]: > 100 µM (inactive) | GI50 [12]: > 100 µM (inactive) | GI50 [13]: > 100 µM (inactive) | GI50 [56]: > 100 µM (inactive) | GI50 [57]: > 100 µM (inactive) | GI50 [15]: > 100 µM (inactive) | GI50 [16]: > 100 µM (inactive) | GI50 [17]: > 100 µM (inactive) | GI50 [18]: > 100 µM (inactive) | GI50 [19]: > 100 µM (inactive) | GI50 [20]: > 100 µM (inactive) | GI50 [21]: > 100 µM (inactive) | GI50 [22]: > 100 µM (inactive) | GI50 [23]: > 100 µM (inactive) | GI50 [24]: > 100 µM (inactive) | GI50 [25]: > 100 µM (inactive) | GI50 [26]: > 100 µM (inactive) | GI50 [27]: > 100 µM (inactive) | GI50 [28]: > 100 µM (inactive) | GI50 [29]: > 100 µM (inactive) | GI50 [30]: > 100 µM (inactive) | GI50 [31]: > 100 µM (inactive) | GI50 [32]: > 100 µM (inactive) | GI50 [33]: > 100 µM (inactive) | GI50 [34]: > 100 µM (inactive) | GI50 [35]: > 100 µM (inactive) | GI50 [36]: > 100 µM (inactive) | GI50 [37]: > 100 µM (inactive) | GI50 [38]: > 10 µM (inactive) | GI50 [39]: > 100 µM (inactive) | GI50 [40]: > 100 µM (inactive) | GI50 [41]: > 100 µM (inactive) | GI50 [42]: > 100 µM (inactive) | GI50 [43]: > 100 µM (inactive) | GI50 [44]: > 100 µM (inactive) | GI50 [45]: > 100 µM (inactive) | GI50 [58]: > 100 µM (inactive) | GI50 [46]: > 100 µM (inactive) | GI50 [47]: > 100 µM (inactive) | GI50 [48]: > 100 µM (inactive) | GI50 [49]: > 100 µM (inactive) | GI50 [50]: > 100 µM (inactive) | GI50 [51]: > 100 µM | GI50 [52]: > 100 µM (inactive) | GI50 [59]: > 100 µM (inactive) | GI50 [53]: > 100 µM (inactive) | GI50 [54]: > 100 µM (inactive)

O=C(O)c1ccccc1CC1Cc2ccc3c(c2C1=O)CCC3 (stereo not drawn)
GI50 [1]: > 100 µM (inactive) | GI50 [2]: > 100 µM (inactive) | GI50 [3]: > 100 µM (inactive) | GI50 [4]: > 100 µM (inactive) | GI50 [5]: > 100 µM (inactive) | GI50 [6]: > 100 µM (inactive) | GI50 [7]: > 100 µM (inactive) | GI50 [8]: > 100 µM (inactive) | GI50 [55]: > 100 µM (inactive) | GI50 [9]: > 100 µM (inactive) | GI50 [10]: > 100 µM (inactive) | GI50 [11]: > 100 µM (inactive) | GI50 [12]: > 100 µM (inactive) | GI50 [13]: > 100 µM (inactive) | GI50 [56]: > 100 µM (inactive) | GI50 [57]: 87.1 µM (inactive) | GI50 [15]: > 100 µM (inactive) | GI50 [16]: > 100 µM (inactive) | GI50 [17]: > 100 µM (inactive) | GI50 [18]: > 100 µM (inactive) | GI50 [19]: > 100 µM (inactive) | GI50 [20]: > 100 µM (inactive) | GI50 [21]: > 100 µM (inactive) | GI50 [22]: > 100 µM (inactive) | GI50 [23]: > 100 µM (inactive) | GI50 [24]: > 100 µM (inactive) | GI50 [25]: > 100 µM (inactive) | GI50 [26]: > 100 µM (inactive) | GI50 [27]: > 100 µM (inactive) | GI50 [28]: > 100 µM (inactive) | GI50 [29]: > 100 µM (inactive) | GI50 [30]: > 100 µM (inactive) | GI50 [31]: > 100 µM (inactive) | GI50 [32]: > 100 µM (inactive) | GI50 [33]: > 100 µM (inactive) | GI50 [34]: > 100 µM (inactive) | GI50 [35]: > 100 µM (inactive) | GI50 [36]: > 100 µM (inactive) | GI50 [37]: > 100 µM (inactive) | GI50 [38]: > 100 µM (inactive) | GI50 [39]: > 100 µM (inactive) | GI50 [40]: > 100 µM (inactive) | GI50 [41]: > 100 µM (inactive) | GI50 [42]: 61.8 µM (inactive) | GI50 [43]: > 100 µM (inactive) | GI50 [44]: > 100 µM (inactive) | GI50 [45]: > 100 µM (inactive) | GI50 [58]: > 100 µM (inactive) | GI50 [46]: > 100 µM (inactive) | GI50 [47]: > 100 µM (inactive) | GI50 [48]: > 100 µM (inactive) | GI50 [49]: > 100 µM (inactive) | GI50 [50]: > 100 µM (inactive) | GI50 [51]: > 100 µM | GI50 [52]: > 100 µM (inactive) | GI50 [59]: > 100 µM (inactive) | GI50 [53]: > 100 µM (inactive) | GI50 [54]: > 100 µM (inactive)
